Experiment [1] is described as follows: Inhibition of wild type Bacteroides thetaiotaomicron beta-mannosidase 2A expressed in Escherichia coli BL21 (DE3) at 37 degC and Ph 5.6 by 2,4-dinitrophenolate release assay.
In experiment [2] the target is Beta-mannosidase (Bacteroides thetaiotaomicron (strain ATCC 29148 / DSM 2079 / NCTC10582 / E50 / VPI-5482), UniProt Q8AAK6, N461A).
Experiment [3] addresses Beta-mannosidase (Bacteroides thetaiotaomicron (strain ATCC 29148 / DSM 2079 / NCTC10582 / E50 / VPI-5482), UniProt Q8AAK6, W645A).
The target in experiment [4] is Beta-mannosidase (Bacteroides thetaiotaomicron (strain ATCC 29148 / DSM 2079 / NCTC10582 / E50 / VPI-5482), UniProt Q8AAK6, Q646A).
Experiment [5] concerns the target Beta-mannosidase (Bacteroides thetaiotaomicron (strain ATCC 29148 / DSM 2079 / NCTC10582 / E50 / VPI-5482), UniProt Q8AAK6, W198G).
Experiment [6] addresses Beta-mannosidase (Bacteroides thetaiotaomicron (strain ATCC 29148 / DSM 2079 / NCTC10582 / E50 / VPI-5482), UniProt Q8AAK6, W395A).
The target in experiment [7] is Beta-mannosidase (Bacteroides thetaiotaomicron (strain ATCC 29148 / DSM 2079 / NCTC10582 / E50 / VPI-5482), UniProt Q8AAK6, Y537A).
The nature of experiment [8]: Inhibition of Thermotoga maritima Beta-glucosidase GH1.

Chain of Beta-mannosidase (Bacteroides thetaiotaomicron (strain ATCC 29148 / DSM 2079 / NCTC10582 / E50 / VPI-5482), UniProt Q8AAK6, Q646A) (Q8AAK6 26-864 Q646A limits assumed): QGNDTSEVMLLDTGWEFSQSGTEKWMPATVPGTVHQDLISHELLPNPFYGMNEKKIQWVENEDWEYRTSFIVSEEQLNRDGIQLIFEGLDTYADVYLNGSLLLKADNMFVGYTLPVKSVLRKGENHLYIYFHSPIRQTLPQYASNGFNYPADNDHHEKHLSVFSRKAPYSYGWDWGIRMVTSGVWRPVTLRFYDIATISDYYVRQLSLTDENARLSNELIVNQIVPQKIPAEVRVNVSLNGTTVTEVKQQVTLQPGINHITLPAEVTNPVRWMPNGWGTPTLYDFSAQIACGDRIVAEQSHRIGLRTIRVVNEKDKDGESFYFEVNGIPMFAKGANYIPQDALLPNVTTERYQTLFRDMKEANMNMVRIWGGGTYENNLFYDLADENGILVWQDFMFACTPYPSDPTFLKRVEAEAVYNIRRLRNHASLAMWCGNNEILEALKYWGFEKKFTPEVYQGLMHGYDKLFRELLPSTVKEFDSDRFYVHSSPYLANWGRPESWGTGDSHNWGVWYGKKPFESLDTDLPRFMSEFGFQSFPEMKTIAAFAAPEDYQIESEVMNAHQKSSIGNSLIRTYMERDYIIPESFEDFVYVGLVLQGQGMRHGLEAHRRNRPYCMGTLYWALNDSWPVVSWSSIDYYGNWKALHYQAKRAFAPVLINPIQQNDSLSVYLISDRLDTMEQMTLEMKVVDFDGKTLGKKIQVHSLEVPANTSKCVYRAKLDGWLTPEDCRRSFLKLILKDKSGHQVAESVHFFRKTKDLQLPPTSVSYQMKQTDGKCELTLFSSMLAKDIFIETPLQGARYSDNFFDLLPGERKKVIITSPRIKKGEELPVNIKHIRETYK
Chain of Beta-mannosidase (Bacteroides thetaiotaomicron (strain ATCC 29148 / DSM 2079 / NCTC10582 / E50 / VPI-5482), UniProt Q8AAK6, W395A) (Q8AAK6 26-864 W395A limits assumed): as the sequence (Q8AAK6 26-864 Q646A limits assumed) above, with W370A, A621Q counted along it
Chain of Beta-mannosidase (Bacteroides thetaiotaomicron (strain ATCC 29148 / DSM 2079 / NCTC10582 / E50 / VPI-5482), UniProt Q8AAK6, N461A) (Q8AAK6 26-864 N461A limits assumed): as the sequence (Q8AAK6 26-864 Q646A limits assumed) above, with N436A, A621Q counted along it
Chain of Beta-mannosidase (Bacteroides thetaiotaomicron (strain ATCC 29148 / DSM 2079 / NCTC10582 / E50 / VPI-5482), UniProt Q8AAK6, W645A) (Q8AAK6 26-864 W645A limits assumed): as the sequence (Q8AAK6 26-864 Q646A limits assumed) above, with W620A, A621Q counted along it
Chain of Beta-mannosidase (Bacteroides thetaiotaomicron (strain ATCC 29148 / DSM 2079 / NCTC10582 / E50 / VPI-5482), UniProt Q8AAK6, W198G) (Q8AAK6 26-864 W198G limits assumed): as the sequence (Q8AAK6 26-864 Q646A limits assumed) above, with W173G, A621Q counted along it
Chain of Beta-mannosidase (Bacteroides thetaiotaomicron (strain ATCC 29148 / DSM 2079 / NCTC10582 / E50 / VPI-5482), UniProt Q8AAK6, Y537A) (Q8AAK6 26-864 Y537A limits assumed): as the sequence (Q8AAK6 26-864 Q646A limits assumed) above, with Y512A, A621Q counted along it

`CCCCN1C[C@H](O)[C@@H](O)[C@H](O)[C@H]1CO` came in with a Ki in experiment [1] of 6000 µM.
As to `OC[C@@H]1[C@@H](O)[C@H](O)[C@H](O)c2nc(CCc3ccccc3)cn21`, the Ki was determined as 3.19 µM on Beta-mannosidase [2]; 0.057 µM in experiment [1]; 324 µM at Beta-mannosidase [3]; 0.245 µM on Beta-mannosidase [4]; 14.2 µM on Beta-mannosidase [5]; 47 µM on Beta-mannosidase [6]. The compound also had a Ki at Beta-mannosidase [7] of 0.71 µM.
For the compound `OC[C@@H]1[C@@H](O)[C@H](O)[C@H](O)c2nc(CNc3ccccc3)cn21`, the Ki on Beta-mannosidase [2] came to 7.28 µM; at Beta-mannosidase [3] it was 68.1 µM; on Beta-mannosidase [4], 0.311 µM; at Beta-mannosidase [5], 58.5 µM; at Beta-mannosidase [6], 46.6 µM; on Beta-mannosidase [7], 1.54 µM.
As for `OC[C@@H]1[C@@H](O)[C@H](O)[C@H](O)c2nc(COc3ccccc3)cn21`, the inhibition constant (Ki) on Beta-mannosidase [2] was determined as 19.1 µM; in experiment [1], 0.401 µM; on Beta-mannosidase [3] it was 245 µM; at Beta-mannosidase [4], 0.494 µM; on Beta-mannosidase [5] it was 356 µM; on Beta-mannosidase [6], 284 µM. The same compound showed a Ki at Beta-mannosidase [7] of 2.65 µM.
In turn, `OC[C@@H]1[C@@H](O)[C@H](O)[C@H](O)c2nc(C#Cc3ccccc3)cn21` displayed a Ki in experiment [1] of 2.4 µM.
Same read-out and setting: in the case of `NCCC/N=C1\N[C@H](CO)[C@@H](O)[C@H](O)[C@@H]1O` it was 2.1 µM.
Turning to `OCCC/N=C1\N[C@H](CO)[C@@H](O)[C@H](O)[C@@H]1O`, in experiment [1], the affinity, expressed as Ki, was 2.2 µM.
With `CCC/N=C1\N[C@H](CO)[C@@H](O)[C@H](O)[C@@H]1O`, the inhibitory constant (Ki) at Beta-mannosidase [2] is 34.8 µM; in experiment [1], 1.9 µM; at Beta-mannosidase [3], 5700 µM; on Beta-mannosidase [4], 71.2 µM; on Beta-mannosidase [5] it was 10500 µM; on Beta-mannosidase [6] it was 1180 µM. The compound also registered an inhibition constant Ki on Beta-mannosidase [7] of 84 µM.
In turn, `NCCCC/N=C1\N[C@H](CO)[C@@H](O)[C@H](O)[C@H]1O` came in with an inhibitory constant (Ki) in experiment [1] of 22 µM.
In the case of `OC[C@H]1C[C@H]2[C@@H](O)[C@@H](O)[C@@]1(O)CN2Cc1ccccc1`, the inhibition constant (Ki) at Beta-mannosidase [2] was found to be 3750 µM; on Beta-mannosidase [3] it was 14400 µM; on Beta-mannosidase [4], 121 µM; at Beta-mannosidase [5], 5690 µM; at Beta-mannosidase [6], 2850 µM; at Beta-mannosidase [7], 233 µM.
For the compound `OC[C@H]1C[C@@H]2NC[C@]1(O)[C@H](O)[C@@H]2O`, the affinity in experiment [1] corresponds to a Ki of 500 µM.
Take `OC[C@H]1CNC(O)[C@@H](O)[C@@H]1O` (some centres undefined): the Ki is 641 µM at Beta-mannosidase [2]; 1.11 µM on Beta-mannosidase [3]; 14 µM at Beta-mannosidase [4]; 788 µM on Beta-mannosidase [5]; 40.8 µM on Beta-mannosidase [6]; 19.2 µM on Beta-mannosidase [7].
Regarding `OC[C@@H]1[C@@H](O)[C@H](O)[C@H](O)c2nnnn21`, the inhibition constant Ki in experiment [1] stood at 1000 µM; in experiment [8] it was 0.17 µM.
As for `O[C@@H]1[C@@H](O)[C@H](O)[C@@]2(O)CC[C@H]1N2`, the Ki in experiment [1] worked out at 11000 µM.
Same read-out and setting: in the case of `OC[C@H]1N/C(=N/O)[C@H](O)[C@@H](O)[C@@H]1O` it was 2000 µM; in that of `CC(C)O[C@@H]1O[C@]2(CO)CC[C@]1(O)[C@@H](O)[C@@H]2O`, greater than 400000 µM.
The same measure, in the same setting: in the case of `OC[C@H]1CNC[C@@H](O)[C@@H]1O` [AFEGOSTAT] it was 9000 µM; in that of `O[C@H]1[C@H](O)[C@@H](O)CN2CC[C@H](O)[C@H]12` [CASTANOSPERMINE], 23000 µM; in that of `OC[C@H]1NC[C@H](O)[C@@H](O)[C@@H]1O` [DUVOGLUSTAT], 14000 µM.
Same read-out and setting: for `OC[C@H]1ONC[C@@H](O)[C@@H]1O` [TETRAHYDROOXAZINE] the value was 20000 µM.

The record behind these values is ChEMBL document CHEMBL1212704, “Structural and biochemical evidence for a boat-like transition state in beta-mannosidases” (Nat Chem Biol, 2008).
